# Laboratory results as given in paper PMC1971528, “Pharmacokinetic studies with the antifolate C2-desamino-C2-methyl-N10-propargyl-2'-trifluoromethyl-5,8-dideazafolic acid (CB3988) in mice and rats using in vivo 19F-NMR spectroscopy” (British Journal of Cancer, 1990).
# Read-outs that look alike come from different tables or passages of the source.
# Tests used:
# [1] = parameters: method as in Alison et al., 1985; Newell et al., 1986; conditions: patients; ref Alison et al., 1985; Newell et al., 1986; cited from earlier work
# [2] = qualitative statement, no reference given; cited from earlier work
# [3] = mice, ref Newell et al., cited from earlier work
# [4] = mice, 1986, cited from earlier work
# [5] = In vivo 19F-NMR spectroscopy of CB3988 in mice; conditions: 500 mg kg-1 i.v.
# Excerpt: (§1) Br. J. Cancer (1990), 62, 766 772 ? Macmillan Press Ltd., 1990 Pharmacokinetic studies with the antifolate C2-desamino-C2-methyl-N10-propargyl-2'-trifluoromethyl-5,8-dideazafolic acid (CB3988) in mice and rats using in vivo '9F-NMR spectroscopy D.R. Newell', R.J. Maxwell2, G.M.F. Bisset', D.I. Jodrell' & J.R. Griffiths2 'Drug Development Section, Institute of Cancer Research, Sutton, Surrey SM2 SNG; and 2CRC Biomedical NMR Group, St George's Hospital Medical School, Tooting, London SW] 7 ORE, UK. Summary In vivo '9F-NMR spectroscopy has been used to study the pharmacokinetics of the experimental antifolate drug CB3988 (C2-desamino-C2-methyl-N'0-propargyl-2'trifluoromethyl-5,8-dideazafolic acid) in mice and rats. NMR results have been compared to those obtained by HPLC and the effect of the inclusion of the CF3 group evaluated by comparing the pharmacokinetics of CB3988 and ICI 198583 (C2-desamino-C2-methyl- N'?-propargyl-5,8-dideazafolic acid) in rats. In mice, following the administration of CB3988 (500 mg kg-' i.v.), drug could be detected in both the upper and the lower abdomen. […] Signal detected in the lower abdomen reached maximum intensity 60-90 min after treatment. […] When the pharmacokinetics of CB3988 and ICI 198583 were compared the only significant difference was in the alpha phase half life which was 2-fold faster for CB3988. […] This is in contrast to N'?-propargyl-5,8-dideazafolic acid, where delayed excretion is associated with hepatic and renal toxicities. The ability to study CB3988 pharmacokinetics non-invasively by '9F-NMR spectroscopy confirms the utility of the technique and, since '9F-NMR can be applied directly to clinical investigations, it may be possible to obtain similar information in humans. It is now accepted that pharmacokinetics are an important determinant of both the activity and toxicity of anticancer drugs (Newell, 1989). This acceptance has led to the inclusion of pharmacokinetic studies in both the preclinical and early clinical evaluation of the majority of novel antitumour agents with two broad aims in mind. Firstly, the studies may be of direct clinical relevance in determining dose escalation during phase I studies (Collins et al., 1986; EORTC PAM Group, 1987) and secondly the information gained may be of value in interpreting both the toxicity and activity of the com- pound. This latter information can in turn be used to develop either new drugs or drug schedules which maximise the therapeutic potential of the agent. In order to conduct pharmacokinetic studies it is necessary to have a method which can accurately and selectively measure levels of the drug and its metabolites in biological fluids and tissues. Ideally the method should allow studies on drug levels in tumour deposits and in sensitive normal tissues since these are more likely to correlate with activity and toxicity than are levels in plasma or urine. In the preclinical setting such measurements are usually performed using radio- chemicals and either autoradiographic or quantitative tissue distribution studies (Siddik & Newell, 1988). However, in patients ethical and clinical considerations restrict the use of radioactive tracers and routine sampling of tumour or nor- mal tissue is not practicable. […] Using physiological pharmaco- kinetic modelling it is possible to extract some tissue distribu- tion information from such data although there is always considerable uncertainty attached to the results because of interpatient variation. […]
# [6] = Quantitative tissue distribution of CB3988 in mice by HPLC; type: in vivo; conditions: 500 mg kg-1 i.v.
# Excerpt: Br. J. Cancer (1990), 62, 766 772 ? Macmillan Press Ltd., 1990 Pharmacokinetic studies with the antifolate C2-desamino-C2-methyl-N10-propargyl-2'-trifluoromethyl-5,8-dideazafolic acid (CB3988) in mice and rats using in vivo '9F-NMR spectroscopy D.R. Newell', R.J. Maxwell2, G.M.F. Bisset', D.I. Jodrell' & J.R. Griffiths2 'Drug Development Section, Institute of Cancer Research, Sutton, Surrey SM2 SNG; and 2CRC Biomedical NMR Group, St George's Hospital Medical School, Tooting, London SW] 7 ORE, UK. Summary In vivo '9F-NMR spectroscopy has been used to study the pharmacokinetics of the experimental antifolate drug CB3988 (C2-desamino-C2-methyl-N'0-propargyl-2'trifluoromethyl-5,8-dideazafolic acid) in mice and rats. NMR results have been compared to those obtained by HPLC and the effect of the inclusion of the CF3 group evaluated by comparing the pharmacokinetics of CB3988 and ICI 198583 (C2-desamino-C2-methyl- N'?-propargyl-5,8-dideazafolic acid) in rats. In mice, following the administration of CB3988 (500 mg kg-' i.v.), drug could be detected in both the upper and the lower abdomen. […] Signal detected in the lower abdomen reached maximum intensity 60-90 min after treatment. […] When the pharmacokinetics of CB3988 and ICI 198583 were compared the only significant difference was in the alpha phase half life which was 2-fold faster for CB3988. […] This is in contrast to N'?-propargyl-5,8-dideazafolic acid, where delayed excretion is associated with hepatic and renal toxicities. The ability to study CB3988 pharmacokinetics non-invasively by '9F-NMR spectroscopy confirms the utility of the technique and, since '9F-NMR can be applied directly to clinical investigations, it may be possible to obtain similar information in humans. It is now accepted that pharmacokinetics are an important determinant of both the activity and toxicity of anticancer drugs (Newell, 1989). This acceptance has led to the inclusion of pharmacokinetic studies in both the preclinical and early clinical evaluation of the majority of novel antitumour agents with two broad aims in mind. Firstly, the studies may be of direct clinical relevance in determining dose escalation during phase I studies (Collins et al., 1986; EORTC PAM Group, 1987) and secondly the information gained may be of value in interpreting both the toxicity and activity of the com- pound. This latter information can in turn be used to develop either new drugs or drug schedules which maximise the therapeutic potential of the agent. […] In the preclinical setting such measurements are usually performed using radio- chemicals and either autoradiographic or quantitative tissue distribution studies (Siddik & Newell, 1988). […]
# [7] = In vivo 19F-NMR spectroscopy of CB3988 in rats; conditions: 100 mg kg-1 i.v.
# Excerpt: as §1
# [8] = Plasma pharmacokinetics and biliary/urinary excretion in rats by HPLC; type: in vivo; conditions: 100 mg kg-1 i.v., CB3988 vs ICI 198583
# Excerpt: (§2) Br. J. Cancer (1990), 62, 766 772 ? Macmillan Press Ltd., 1990 Pharmacokinetic studies with the antifolate C2-desamino-C2-methyl-N10-propargyl-2'-trifluoromethyl-5,8-dideazafolic acid (CB3988) in mice and rats using in vivo '9F-NMR spectroscopy D.R. Newell', R.J. Maxwell2, G.M.F. Bisset', D.I. Jodrell' & J.R. Griffiths2 'Drug Development Section, Institute of Cancer Research, Sutton, Surrey SM2 SNG; and 2CRC Biomedical NMR Group, St George's Hospital Medical School, Tooting, London SW] 7 ORE, UK. Summary In vivo '9F-NMR spectroscopy has been used to study the pharmacokinetics of the experimental antifolate drug CB3988 (C2-desamino-C2-methyl-N'0-propargyl-2'trifluoromethyl-5,8-dideazafolic acid) in mice and rats. NMR results have been compared to those obtained by HPLC and the effect of the inclusion of the CF3 group evaluated by comparing the pharmacokinetics of CB3988 and ICI 198583 (C2-desamino-C2-methyl- N'?-propargyl-5,8-dideazafolic acid) in rats. In mice, following the administration of CB3988 (500 mg kg-' i.v.), drug could be detected in both the upper and the lower abdomen. […] Signal detected in the lower abdomen reached maximum intensity 60-90 min after treatment. […] In the preclinical setting such measurements are usually performed using radio- chemicals and either autoradiographic or quantitative tissue distribution studies (Siddik & Newell, 1988). […]
# Acute toxicity in mice = type: in vivo; conditions: 500 mg kg-1 i.v.
# Excerpt: as §2
# Acute toxicity in rats = type: in vivo; conditions: 100 mg kg-1 i.v.
# Excerpt: as §2
# thymidylate synthase = system: thymidylate synthase; parameters: method as in A.L. Jackman, unpublished results; conditions: ref A.L. Jackman, unpublished results; cited from earlier work
# [9] = cited from earlier work
# [10] = parameters: method as in Newell et al., 1988; conditions: experimental systems; ref Newell et al., 1988; cited from earlier work
# [11] = upper abdomen, cannulated and bile duct-intact
structure (smiles),measurement,setting,value
"C#CCN(Cc1ccc2nc(N)[nH]c(=O)c2c1)c1ccc(C(=O)N[C@@H](CCC(=O)O)C(=O)O)cc1 [CB3717, N10-propargyl-5,8-dideazafolic acid]",nephrotoxicity,[1],nephrotoxic
same,aqueous solubility,[2],poor solubility
same,urinary excretion and persistence in kidney,[3]; 1986,delayed urinary excretion and drug still present in the kidney weeks after administration
same,nephrotoxicity,"[4]; ref Alison et al., 1985, Newell et al.",nephrotoxic
same,hepatotoxicity,[4]; ref Newell et al.,hepatotoxic
"C#CCN(Cc1ccc2nc(C)[nH]c(=O)c2c1)c1ccc(C(=O)N[C@@H](CCC(=O)O)C(=O)O)c(C(F)(F)F)c1 [CB3988, C2-desamino-C2-methyl-N10-propargyl-2'trifluoromethyl-5,8-dideazafolic acid]",time by which urinary excretion is essentially complete,[5]; NMR signal in bladder,≤ 1 h
same,time at which NMR signal in the lower abdomen reached maximum intensity,[5]; lower abdomen,60 to 90 min
same,metabolites (additional peaks) in NMR spectrum,[5]; upper abdomen,No clear evidence of the presence of additional peaks
same,time at which NMR signal from the upper abdomen reached maximum intensity,[5]; upper abdomen,10 to 40 min
same,half-life,"[5]; mouse, upper abdomen (in vivo NMR signal), iv, analysis period 40-120 min, mean ± s.d. of three mice, read-out: half life for the decline of NMR signal from the upper abdomen (overall mean)",28 min
same,"CB3988 concentration in bile and urine, molar",[6],40 to 60 mM
same,CB3988 concentration in liver and small intestines,[6]; 30 and 60 min,> 1 mg g-1 wet weight
same,CB3988 concentration in bile and urine (gall bladder and urinary bladder),"[6]; 30 and 60 min, HPLC",20 to 30 mg/mL
same,Conc. large intestine,"[6]; 60 min, large intestine (ND)",< 0.02 mg g-1 wet weight
same,metabolites in NMR spectra,[7]; intact and cannulated bile ducts,no metabolites being detected
same,time by which NMR signal reached the limit of detection,"[7]; upper abdomen, bile duct cannulated",15 to 20 min
same,time after bolus dose at which NMR signal was detected,[7]; [11],up to 2 min
same,time by which NMR signal intensity reached a maximum value,[7]; [11],≤ 10 min
same,half-life,"[7]; rat, iv, upper abdomen, three bile duct cannulated rats, read-out: half-life for the decline in the NMR signal, individual rats",5.6 min
same,"alpha phase half life, fold faster than ICI 198583",[8],2 fold
same,acute toxicity,Acute toxicity in mice,no acute toxicity
same,acute toxicity,Acute toxicity in rats,no acute toxicity
same,reduction of inhibitory activity towards thymidylate synthase in comparison to ICI 198583,thymidylate synthase,7 fold
same,reduction of cytotoxicity in comparison to ICI 198583,"[9]; ref A.L. Jackman, unpublished results",14 fold
"C#CCN(Cc1ccc2nc(C)[nH]c(=O)c2c1)c1ccc(C(=O)N[C@@H](CCC(=O)O)C(=O)O)cc1 [ICI 198583, C2-desamino-C2-methyl-N10-propargyl-5,8-dideazafolic acid]",potency in cytotoxicity studies relative to CB3717,"[9]; ref Hughes et al., 1988, Jackman et al.",markedly more potent than CB3717
same,aqueous solubility,[2],greatly enhanced aqueous solubility compared to CB3717
same,retention in liver and kidney,[3]; 1988,not retained in either the liver or the kidney
same,acute liver and kidney toxicity,[10],devoid of acute liver and kidney toxicity
